These results are taken from US12486242B2, “Long-acting low-addiction HNK derivative and preparation method therefor” (SHENZHEN RUIJIAN BIOTECHNOLOGY CO., LTD, priority 2020, dated 2025).

“Also recorded” adds a separate entry of the source. Where a name gives a salt, the structure may show the parent alone.

The test system of series [1] is mice. Put plainly: Behavioral sensitization experiment (spontaneous activity measurement). It is filed as in vivo, C57BL/6J mice. As to conditions: doses 5 mg, 10 mg, 30 mg, intragastric, d1, d7, d15. How it is done: (§1) Animals: Male C57BL/6J mice of 8-12 weeks old were randomly divided into groups, 10 mice in each group, with body weight of 18-22 g, fed at room temperature (22±1° C.), under humidity of (50±10)%, illumination time from 8:00 to20:00. The mice had free access to food and water, and adapted to the experimental environment for at least 2-3 days before the experiments. All experiments were conducted from 8:00 to 16:00.
1.1 Small animal spontaneous activity measurement: An animal spontaneous activity infrared analysis system consists of a spontaneous activity box, an infrared probe device and a data acquisition system. The size of the spontaneous activity box is 40 cm×40 cm×65 cm, with sound isolation and light isolation, and mounted with a ventilation device. The activity statuses of the animals were recorded by the infrared probe, and the numbers of spontaneous activities of the animals were calculated. In order to test the effect of drugs on spontaneous activities of mice, the mice were randomly divided into 4 groups with 10 mice in each group. The Groups included: vehicle, I6, C, D (5.0, 10.0, 30.0 mg/kg), mor (10 mg/kg). The mice were administrated intragastrically once a day in the morning for 7 consecutive days; after that, the drugs withdrew for 7 days (without any treatment). On the 15th day, mice in each group were given Veh and the drugs (5.0, 10.0, 30.0 mg/kg) by intragastric administration to stimulate. Spontaneous activity of the mice within 1 hour was measured immediately after administration at d1, d7 and d15.
Statistical analysis: Experimental data were expressed as X±SEM. Graphpad software was used for statistical analysis, and t-test was used for comparison between two groups. One-way ANOVA analysis was used for comparison among multiple groups, and then LSD method was used for pairwise comparison.

Series [2] has as its system mice. Put plainly: Forced swimming test (FST), immobility time. It is filed as in vivo. Conditions: for antidepressant effect (immobility time): intragastric administration, mice; for antidepressant effect: dose not given; for course of efficacy within 7 days / effect on the 7th day: intragastric; for course of efficacy within 7 days: 1 hour to 7 days. How it is done:
One hour before the forced swimming test (FST), the mice were transferred to the laboratory. The test was conducted under normal light condition and monitored by a digital camera. During the test, the mice were individually placed in transparent glass cylinders (28.5 cm in height, 14 cm in diameter) filled with 20 cm height of water (23±1° C.). On the first day, the mice were trained for 6 minutes and then removed from the cylinder. On the second day, the mice were administered saline, HNK, Compound 16, Compound C, and Compound D, and after different time periods, their immobility time was tested. During the last 4 minutes of the entire 6-minute swimming test, the static time was recorded through EthoVision XT (Noldus, Netherlands) of Noldus system. The static time was defined as passive floating, that is there was no other movement except the movements necessary to keep the animal's head above the water. After every two to three tests, the water in the cylinders was replaced. After the swimming test, the mice were removed from the water and dried under an infrared lamp.
The mice were given 1 mg (A), 10 mg (B) and 30 mg (C) of HNK and Compund I6 by intragastric administration, respectively, and their immobility time was measured after 1 hour and 7 days. The percentage of immobility time is expressed as mean±SEM. *p<0.05, **p<0.01, compared to base test. Mice of each group was N=8. Saline: saline group; I6: Compound I6 treatment group; HNK: 2R,6R-hydroxynorketamine treatment group.

The test system of series [3] is mice. Put plainly: Position preference (CPP) experiment, three-room system. It is filed as in vivo, C57BL/6J mice. Conditions: doses 5 mg, 10 mg, 30 mg, intragastric, 6 days training, residence time in white box within 15 min. On the procedure:
as §1
1.2 CPP experiment: A three-room CPP system includes black and white boxes (25 cm×25 cm×30 cm) at left and right sides, separated by a middle box (10 cm×25 cm×30 cm). During the experiment, mice were put into the middle box and could freely move to the black and white boxes. A door with the size of 5 cm×5 cm was arranged between the middle box and each of the black and white boxes. The experiment adopted a biased procedure, which had three stages of pre-test, training, and test stages. During the whole experiment, the environmental conditions such as light, color and smell in the boxes were guaranteed to be consistent.
Pre-test stage: On days 1-3, the spacer plates between the boxes were removed, and all mice were put into the middle box after being injected with saline subcutaneously, allowing them to move freely in the boxes for 15 min, once a day for 3 consecutive days. The residence time of the mice in the black and white boxes was respectively recorded to determine the natural preference of the mice. The mice were trained with the non-natural preference box as the companion medicine box. […]
Test stage: on day 10, the spacer plates were removed, and the mice were put into the middle box allowing to move freely. At the same time, the residence time of the mice in the white box within 15 min were recorded.
Position preference was tested by a three-room system. […] After continuous training for 6 days, the test was carried out, and the residence times of the mice within 15 min in the white box were recorded. […]

For series [4], the system named is NMDA receptor. Conditions: cited from earlier work.
Series [5] can be described thus: Applicant's experimental studies on HNK (efficacy duration, addiction). Conditions: in vivo.
Series [6] concerns patients. As to conditions: within 72 hours after a single intravenous injection, 0.5 mg/kg; cited from earlier work.

With `CN[C@@]1(c2ccccc2Cl)CCC[C@@H](OC(=O)c2ccccc2)C1=O` [Compound C], the “behavioral sensitization effect on mice” value in series [1] is reported as “behavioral sensitizing effect; also recorded: behavioral sensitization effect”. Also, the “antidepressant effect (immobility time)” value in series [2] (30 mg) is reported as “no antidepressant effect”. Further, in series [2], the antidepressant effect entry was “no antidepressant effect”. For the same molecule, the “position preference effect on mice” value in series [3] is “induced position preference”.

`N[C@]1(c2ccccc2Cl)CCC[C@H](OC(=O)c2ccc(CN3CCOCC3)cc2)C1=O` [Compound D]: in series [1], the “behavioral sensitization effect on mice” value is “behavioral sensitizing effect; also recorded: behavioral sensitization effect”. Also, in series [2] (30 mg), the “antidepressant effect (immobility time)” value was “no antidepressant effect”. In series [2], the antidepressant effect entry was “no antidepressant effect”. Also, the “position preference effect on mice” value in series [3] is recorded as “induced position preference”.

Regarding `N[C@@]1(c2ccccc2Cl)CCC[C@@H](OC(=O)c2ccoc2)C1=O` [Compound I6, (2R,6R)-6-(3-furan)formyloxynorketamine hydrochloride salt], in series [1] (hydrochloride salt), the “behavioral sensitization effect on mice” value was “no behavioral sensitization effect; also recorded: non-sensitization effect”. In addition, the “antidepressant effect (immobility time)” value in series [2] (1 mg) is recorded as “no antidepressant effect”; in series [2] (10 mg), “antidepressant effect”; in series [2] (30 mg), “antidepressant effect”. For the same molecule, the “difference between the 10 mg and 30 mg treatment groups” value in series [2] (10 mg vs 30 mg) is “no significant difference”. In addition, the “course of efficacy within 7 days” value in series [2] (10 mg) and in series [2] (30 mg) was “substantially did not decrease” throughout. Also, the “immobility time during forced swimming” value in series [2] (compared with the HNK-treated group) is on record as “less immobility time”. Moreover, the “antidepressant effect at the 7th day after administration” value in series [2] (compared with the HNK-treated group, dose not stated) was “significant antidepressant effect”. Further, in series [3] (hydrochloride salt), the “position preference effect on mice” value is “no position preference effect; also recorded: non-position preference effect”.

For `N[C@@]1(c2ccccc2Cl)CCC[C@@H](O)C1=O` [HNK, (2R,6R)-6-hydroxydemethylketamine, reference compound], the “activity to NMDA receptor” value in series [4] is “no activity”. Moreover, the “antidepressant effect (immobility time)” value in series [2] (1 mg) was “no antidepressant effect”. Further, in series [2] (10 mg), the “antidepressant effect (immobility time)” value was “antidepressant effect”, the “effect on the 7th day” value is “substantially had no effect” and the “course of efficacy within 7 days” value is reported as “decreased rapidly”. For the same molecule, in series [2] (30 mg), the “antidepressant effect (immobility time)” value is given as “antidepressant effect”, the “effect on the 7th day” value is on record as “substantially had no effect” and the “course of efficacy within 7 days” value is “decayed rapidly”. In addition, in series [5], the addiction entry is recorded as “a certain degree of addiction” and the “duration of efficacy after administration” value is “basically lost activity within one week”.

In the case of `CNC1(c2ccccc2Cl)CCCCC1=O` (centres unmarked) [ketamine], the “patients with Hamilton Depression Scale score decreased by 50% or more” value in series [6] is “more than 50%”.
